target: T1, Vitamin D3 receptor (Rattus norvegicus) (UniProt P13053); test: Percent relative binding affinity for vitamin D receptor VDR; format: functional
T1 sequence (whole entry): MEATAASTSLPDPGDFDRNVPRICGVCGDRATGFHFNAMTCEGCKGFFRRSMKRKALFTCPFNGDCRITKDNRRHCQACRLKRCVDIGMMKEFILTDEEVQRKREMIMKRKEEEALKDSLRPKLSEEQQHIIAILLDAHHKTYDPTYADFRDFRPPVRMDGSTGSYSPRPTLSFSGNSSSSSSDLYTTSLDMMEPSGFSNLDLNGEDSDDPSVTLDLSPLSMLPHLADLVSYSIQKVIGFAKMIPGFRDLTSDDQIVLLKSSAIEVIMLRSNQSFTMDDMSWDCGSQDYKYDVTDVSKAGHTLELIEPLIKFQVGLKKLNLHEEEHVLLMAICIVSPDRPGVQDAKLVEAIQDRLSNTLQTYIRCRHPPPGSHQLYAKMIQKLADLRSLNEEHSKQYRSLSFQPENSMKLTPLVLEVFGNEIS

| RBA [%] | Compound |
| --- | --- |
| < 3 | C=C1/C(=C\C=C2/CCC[C@]3(C)C([C@H](C)CCC/C(=N\OC)C(C)(C)C)=CC[C@@H]23)C[C@H](O)C[C@H]1O |
| 35 | C=C1/C(=C\C=C2/CCC[C@]3(C)C([C@H](C)CCCC(=O)C(C)(C)C)=CC[C@@H]23)C[C@H](O)C[C@H]1O |
| 3 | C=C1/C(=C\C=C2/CCC[C@]3(C)C([C@H](C)CCC/C(=N\O)C(C)(C)C)=CC[C@@H]23)C[C@H](O)C[C@H]1O |

target: T1, Vitamin D3 receptor (Rattus norvegicus); test: In vitro vitamin D receptor-mediated transcriptional activity in rat osteosarcoma ROS 17/2.8 cells

| ED50 [nM] | Compound |
| --- | --- |
| 2 | C=C1/C(=C\C=C2/CCC[C@]3(C)C([C@H](C)CCC/C(=N\OC)C(C)(C)C)=CC[C@@H]23)C[C@H](O)C[C@H]1O |
| 0.1 | C=C1/C(=C\C=C2/CCC[C@]3(C)C([C@H](C)CCCC(=O)C(C)(C)C)=CC[C@@H]23)C[C@H](O)C[C@H]1O |
| 10 | C=C1/C(=C\C=C2/CCC[C@]3(C)C([C@H](C)CCC/C(=N\O)C(C)(C)C)=CC[C@@H]23)C[C@H](O)C[C@H]1O |
| 0.4 | C=C1/C(=C\C=C2/CCC[C@]3(C)[C@@H]([C@H](C)CCCC(C)(C)O)CC[C@@H]23)C[C@@H](O)C[C@@H]1O |

— ChEMBL document CHEMBL1135923, “Conceptually new low-calcemic oxime analogues of the hormone 1 alpha,25-dihydroxyvitamin D(3): synthesis and biological testing” (J Med Chem, 2002)
